#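 How tested: cells in 96-well plates exposed to compound for 48 hours at five concentrations. TGI: total growth inhibition.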
# How the values were obtained:
# Test in all cases: NCI tumour cell line growth inhibition, 48 h
# [1] = test system: IGROV1 ovarian
# [2] = test system: NCI-H460 lung
# [3] = test system: M19-MEL melanoma
# [4] = test system: UACC-62 melanoma
# [5] = test system: HOP-62 NSCLC
# [6] = test system: CCRF-CEM leukemia
# [7] = test system: HT29 colon
# [8] = test system: SNB-78 CNS
# [9] = test system: MALME-3M melanoma
# [10] = test system: K-562 leukemia
# [11] = test system: COLO 205 colon
# [12] = test system: CAKI-1 renal
# [13] = test system: A498 renal
# [14] = test system: SF-295 CNS
# [15] = test system: ACHN renal
# [16] = test system: EKVX NSCLC
# [17] = test system: OVCAR-3 ovarian
# [18] = test system: SW-620 colon
# [19] = test system: UO-31 renal
# [20] = test system: KM20L2 colon
# [21] = test system: SNB-75 CNS
# [22] = test system: SN12C renal
# [23] = test system: A549 NSCLC
# [24] = test system: HL-60(TB) leukemia
# [25] = test system: SK-OV-3 ovarian
# [26] = test system: U251 CNS
# [27] = test system: OVCAR-5 ovarian
# [28] = test system: SNB-19 CNS
# [29] = test system: HOP-92 NSCLC
# [30] = test system: TK-10 renal
# [31] = test system: M14 melanoma
# [32] = test system: DMS 273 small cell lung
# [33] = test system: MOLT-4 leukemia
# [34] = test system: NCI-H23 lung
# [35] = test system: KM12 colon
# [36] = test system: RXF-631 renal
# [37] = test system: SF-539 CNS
# [38] = test system: LOX IMVI melanoma
# [39] = test system: LXFL 529 NSCLC
# [40] = test system: HCT-15 colon
# [41] = test system: RXF 393 renal
# [42] = test system: SK-MEL-2 melanoma
# [43] = test system: DMS 114 small cell lung
# [44] = test system: SK-MEL-28 melanoma
# [45] = test system: DLD-1 colon
# [46] = test system: SF-268 CNS
# [47] = test system: SK-MEL-5 melanoma
# [48] = test system: NCI-H522 lung
# [49] = test system: 786-0 renal
# [50] = test system: UACC-257 melanoma
# [51] = test system: OVCAR-8 ovarian
# [52] = test system: NCI-H226 lung
# [53] = test system: RPMI-8226 leukemia
# [54] = test system: OVCAR-4 ovarian
# [55] = test system: XF 498 CNS
# [56] = test system: HCC-2998 colon
# [57] = test system: HCT-116 colon
structure (smiles),measurement,setting,value
c1ccc(CNc2ccc3[nH]c4cnccc4c3c2)cc1,TGI,[1],34.4 µM
same,TGI,[2],34.1 µM
same,TGI,[3],36.3 µM
same,TGI,[4],34 µM
same,TGI,[5],31.7 µM
same,TGI,[6],42.5 µM
same,TGI,[7],31.7 µM
same,TGI,[8],38.5 µM
same,TGI,[9],35.8 µM
same,TGI,[10],36.5 µM
same,TGI,[11],31 µM
same,TGI,[12],30.4 µM
same,TGI,[13],28.6 µM
same,TGI,[14],32.6 µM
same,TGI,[15],29 µM
same,TGI,[16],43.4 µM
same,TGI,[17],27 µM
same,TGI,[18],42.2 µM
same,TGI,[19],29.4 µM
same,TGI,[20],30.9 µM
same,TGI,[21],19.8 µM
same,TGI,[22],33.3 µM
same,TGI,[23],34.7 µM
same,TGI,[24],27.4 µM
same,TGI,[25],41.5 µM
same,TGI,[26],32 µM
same,TGI,[27],30.9 µM
same,TGI,[28],29.6 µM
same,TGI,[29],30.8 µM
same,TGI,[30],36.2 µM
same,TGI,[31],32.9 µM
same,TGI,[32],37.4 µM
same,TGI,[33],36.9 µM
same,TGI,[34],32.3 µM
same,TGI,[35],31.1 µM
same,TGI,[36],49.2 µM
same,TGI,[37],33.3 µM
same,TGI,[38],33.5 µM
same,TGI,[39],30.5 µM
same,TGI,[40],39.1 µM
same,TGI,[41],26.8 µM
same,TGI,[42],33.1 µM
same,TGI,[43],32.1 µM
same,TGI,[44],27.1 µM
same,TGI,[45],31.9 µM
same,TGI,[46],35 µM
same,TGI,[47],30.2 µM
same,TGI,[48],29.1 µM
same,TGI,[49],29.3 µM
same,TGI,[50],31.4 µM
same,TGI,[51],36.5 µM
same,TGI,[52],38.4 µM
same,TGI,[53],54.7 µM
same,TGI,[54],29.1 µM
same,TGI,[55],35.8 µM
same,TGI,[56],33.2 µM
same,TGI,[57],33.2 µM

# Reference: PubChem BioAssay (NCI)
